Each block holds one compound with its values, some of them ahead of it.
How the values were obtained:
[1] = tested on: COR-L23/P and its resistant cell line COR-L23/R; assay type: cell-based, human; conditions: for cellular accumulation (concentration) in COR-L23/R compared with COR-L23/P: drugs at 20 μM, FIG. 11; for fluorescence due to uptake in resistant and non-resistant cells: drug concentration 10 μM, FIG. 12
Procedure: Cells were exposed in suspension at 2×10^5/ml to drugs at 20 μM. Aliquots were taken at various times and rinsed in ice cold PBS before being passed through the flow cytometre.
Cells were exposed to Daunorubicine, Daunorubicine elaidic amide and Daunorubicine oleic carbamate, as described above. Drug concentration was reduced to 10 μM.

[2] = tested on: granuloma induced cartilage degradation; conditions: daily oral; for glycosaminoglycan content of implanted cartilage, less than liposome-treated control group / hydroxyproline content of implanted cartilage, less than liposome-treated control group / reduction of granuloma tissue dry weight versus liposome-treated control / reduction of fluid mass of the granulomas versus liposome-treated control: naproxen 30 mg/kg, derivatives 60 mg/kg; for glycosaminoglycan content of implanted cartilage, less than liposome-treated control group / hydroxyproline content of implanted cartilage, less than liposome-treated control group: implants 2 weeks; for reduction of granuloma tissue dry weight versus liposome-treated control / reduction of fluid mass of the granulomas versus liposome-treated control: liposomes; for reduction of granuloma tissue dry weight versus liposome-treated control: control 14.36 mg; for reduction of fluid mass of the granulomas versus liposome-treated control: control 62.69 mg
Description: The in vivo model of granuloma induced cartilage degradation which was employed involves the implantation of sterile cotton-wrapped rat femoral head cartilage subcutaneously on the backs of mice. The cotton provokes a granulomatous response with a demonstrable T cell involvement which leads to loss of matrix compounds from the implanted cartilage. […] It involves chronic erosive disease with quantitative biochemical end points for determining the loss of cartilage matrix. Antiinflammatory activity can be judged from the wet and dry mass of the cotton granuloma, chondroprotective activity can be determined from glycosaminoglycan and hydroxyproline content (indicative of proteoglycan and collagen respectively) of the implanted cartilage.
Groups of female (n=10) TO mice (21±4 g) received a subcutaneous implant of cotton-wrapped rat femoral head cartilage. At 2 weeks the implants were removed. The cotton provoked a granulomatous response with concomitant release of proteoglycan from the implanted cartilage. The effects of daily oral administration of equimolar amounts of naproxen (30 mg/kg) and naproxen derivatives (60 mg/kg) on granuloma development and cartilage proteoglycan content were assessed. The compounds were formulated as liposomes with empty liposomes acting as vehicle control.
A 15 mg/ml liposomal formulation is prepared by the 1:1 (w/w) mixing of the specific lipid derivatives (in DMSO) and lecithin (in ethanol) in a glycerol/sterile water buffer with subsequent dialysis to remove the solvents. A 7.5 mg/ml liposomal formulation of the underivatised NSAID compounds is prepared by the addition of the specific compound to empty liposomes in glycerol/sterile water.
Results were analysed with INSTAT using Mann-Whitney and with p values corrected for ties. Values of p<0.05 were taken as significant.

[3] = drug toxicity LD50 in tumour-bearing mice, single intraperitoneal dose; assay type: in vivo, BALB/C female mice; conditions: for LD50 at 10 days: female, BALB/C, mouse, in vivo, ip, read-out: Mother compound LD50
Procedure: (§1) Murine solid ADJ/PC6 plasmacytoma and its subline selected for resistance to cisplatin and other alkylating agents was implanted subcutaneously as 1 mm^3 tumour fragments into BALB/C female mice weighing 20-25 grams. Melphalan or melphalan-elaidic amide, or chlorambucil or chlorambucil-oleylester, were administered by intraperitoneal, single dose 20 days post subcutaneous tumour implantation. Tumours were dissected on day 30, and weights of control and treated groups were compared. Activity was based on the measurement of drug toxicity, LD50 in mg/kg compared to anti-tumour effect measured as ED90, the dose in mg/kg required to reduce tumour mass by 90% compared to controls.

[4] = tested on: H69/LX4, human small lung cell line, overexpressing PgP
Description: An MTT assay was used to determine the toxicity of compounds. The cells were exposed to the compounds for 6 days prior to assaying. The cell line used was H69/LX4, human small lung cell line, overexpressing PgP.

[5] = tested on: NK65 strain drug sensitive P. berghei; assay: 4-day test in P. berghei infected mice; assay type: in vivo; conditions: for ED50: Plasmodium berghei, ip, 96 h, 50% reduction in parasites in blood, read-out: ED50 value (SE); for ED50 / ED90 value / ED99 value: i.p. for 4 days, elaidate values × 433/600; for ED90 value: 90% reduction in parasites in blood; for ED99 value: 99% reduction in parasites in blood
Procedure: A 4-day test in NK65 strain drug sensitive P. berghei was carried out in Swiss albino female mice with doses of 0.063, 0.25, 1.0 and 4 mg/kg hydroxychloroquine-elaidate and 0.094, […], 1.5 and 6 mg/kg hydroxychloroquine given intraperitoneally for 4 days to groups of 3 mice per group. The parasite inoculum of 10^7 infected cells was given intravenously on day 0 and follwoed by the drug dose for that day. The animals were dosed for the 3 following days and on the 5th day tail blood films were prepared for parasitaemia estimation. […] These findings could be of great importance in the treatment of malaria in man.
The effective doses giving 50%, 90% and 99% reduction in P. berghei malaria parasites in the blood of mice with either hydroxychloroquine sulphate or hydroxychloroquine-elaidate is shown in this table.

[6] = tested on: cisplatin-resistant subline of ADJ/PC6 plasmacytoma; assay: antitumour effect in vivo, cisplatin-resistant subline of ADJ/PC6 plasmacytoma; set-up: species or system murine
Procedure: as §1

ADJ/PC6 plasmacytoma = assay: antitumour effect in vivo, murine subcutaneous ADJ/PC6 plasmacytoma (sensitive); conditions: i.p. single dose day 20, tumours weighed day 30
Procedure: as §1

[7] = tested on: rat peritoneal monocytes/macrophages; assay: effect on rat peritoneal monocytes/macrophages after intraperitoneal injection (cell counts, chemoluminescence on stimulation); assay type: in vivo; conditions: for activity (chemoluminescence) of zymosan stimulated peritoneal cells: 6, 12, 25, 48 and 72 hours post treatment, FIG. 5
[8] = tested on: endotoxin induced airway changes; assay: endotoxin (LPS) induced airway changes in rats, airway hyperresponsiveness model; assay type: in vivo, F344 rats
[9] = i.p. single dose day 20, tumours weighed day 30

Compound: CCCCCCCC/C=C\CCCCCCCCOC(=O)N[C@H]1C[C@H](O[C@H]2C[C@](O)(C(=O)CO)Cc3c(O)c4c(c(O)c32)C(=O)c2c(OC)cccc2C4=O)O[C@@H](C)[C@H]1O (relative stereo) [Doxorubicine-oleyl-carbamate, N-(cis-9-octadecen-1-oxycarbonyl)doxorubicin]
cellular accumulation (concentration) in COR-L23/R compared with COR-L23/P [1]: approximately the same

Compound: CCCCCCCC/C=C\CCCCCCCCNC(=O)[C@@H](C)c1ccc2cc(OC)ccc2c1 (stereo in doubt) [naproxen oleyl amide, S(+)-2-(6-methoxy-2-naphthyl)propionic acid-(cis-9′-octadecenyl)-amide]
glycosaminoglycan content of implanted cartilage, less than liposome-treated control group [2]: 11%
hydroxyproline content of implanted cartilage, less than liposome-treated control group [2]: 3%
reduction of granuloma tissue dry weight versus liposome-treated control ([2]; 2 weeks): 38%
reduction of fluid mass of the granulomas versus liposome-treated control ([2]; 2 weeks): 22%

Compound: CCCCCCCC/C=C\CCCCCCCCOC(=O)[C@@H](C)c1ccc2cc(OC)ccc2c1 (stereo in doubt) [naproxen oleyl ester, S(+)-2-(6-methoxy-2-naphthyl)propionic acid-cis-9′-octadecenyl-ester]
glycosaminoglycan content of implanted cartilage, less than liposome-treated control group [2]: 12%
hydroxyproline content of implanted cartilage, less than liposome-treated control group [2]: 8%
reduction of granuloma tissue dry weight versus liposome-treated control ([2]; 2 weeks): 12%
reduction of fluid mass of the granulomas versus liposome-treated control ([2]; 2 weeks): 14%

Compound: CCCCCCCC/C=C\CCCCCCCCOc1ccc2cc([C@H](C)C(=O)O)ccc2c1 (stereo in doubt) [naproxen oleyl ether, S(+)-2-(6-[cis-9′-octadecenoxy]-2-naphthyl)-propionic acid]
reduction of granuloma tissue dry weight versus liposome-treated control ([2]; 2 weeks): 16%
reduction of fluid mass of the granulomas versus liposome-treated control ([2]; 2 weeks): 9%

Compound: O=C(O)CCCc1ccc(N(CCCl)CCCl)cc1 [Chlorambucil, 4-[p-[bis(2-chlorethyl)amino]-phenyl]butyric acid, reference compound]
LD50 at 10 days [3]: 57 mg/kg

Compound: CCCCCCCCC=CCCCCCCCCOC(=O)NC1CC(OC2CC(O)(C(C)=O)Cc3c(O)c4c(c(O)c32)C(=O)c2c(OC)cccc2C4=O)OC(C)C1O (stereo not drawn) [Daunorubicine oleic carbamate, N-(cis-9-octadecen-1-oxycarbonyl)daunorubicin]
fluorescence due to uptake in resistant and non-resistant cells [1]: more or less equal in the two cell types

Compound: COc1cccc2c1C(=O)c1c(O)c3c(c(O)c1C2=O)C[C@@](O)(C(=O)CO)C[C@@H]3O[C@H]1C[C@H](N)[C@H](O)[C@H](C)O1 [Doxorubicine, reference compound]
cellular accumulation (concentration) in COR-L23/R compared with COR-L23/P [1]: much lower in the resistant cell line

IC50 [4]: > 50 µM
Compound: CCCCCCCCC=CCCCCCCCC(=O)NC1CC(OC2CC(O)(C(=O)CO)Cc3c(O)c4c(c(O)c32)C(=O)c2c(OC)cccc2C4=O)OC(C)C1O (stereo not shown) [Doxorubicine-elaidic-amide, Elaidic acid doxorubicin amide]
cellular accumulation (concentration) in COR-L23/R compared with COR-L23/P [1]: approximately the same

Compound: CCN(CCO)CCCC(C)Nc1ccnc2cc(Cl)ccc12 (stereo not shown) [Hydroxychloroquine sulphate, 7-chloro-4-[4-[ethyl(2-hydroxyethyl)amino]1-methylbutylamino]quinoline, reference compound]
ED50 [5]: 1.74 mg/kg
ED90 value [5]: 2.75 mg/kg
ED99 value [5]: 4.52 mg/kg

Compound: CCCCCCCC/C=C/CCCCCCCC(=O)OCCN(CC)CCCC(C)Nc1ccnc2cc(Cl)ccc12 (stereo not shown) [Hydroxychloroquine-elaidate, 7-chloro-4-[4-[ethyl(2-elaidoyloxyethyl)amino]1-methylbutylamino]-quinoline]
ED50 [5]: 0.71 mg/kg
ED90 value [5]: 0.93 mg/kg
ED99 value [5]: 1.24 mg/kg
times more effective than hydroxychloroquine itself ([5]; on a molar basis, 4 day test): 2.5- 3 times

Compound: N[C@@H](Cc1ccc(N(CCCl)CCCl)cc1)C(=O)O [Melphalan, L-3-[p-[bis(2-chlorethyl)amino]-phenyl]alanine, reference compound]
LD50 at 10 days [3]: 23 mg/kg
ED90, dose required to reduce tumour mass by 90% compared to controls [6, 9]: no activity

Compound: CCCCCCCC/C=C\CCCCCCCCOC(=O)CCCc1ccc(N(CCCl)CCCl)cc1 [chlorambucil-oleylester, Chlorambucil-oleyl ester]
Derivative LD50 [3]: >1600 mg/kg

Compound: CCCCCCCC/C=C/CCCCCCCC(=O)NC(Cc1ccc(N(CCCl)CCCl)cc1)C(=O)O (stereo not shown) [melphalan-elaidic amide, Elaidic acid melphalan amide]
Derivative LD50 [3]: 180 mg/kg
ED90, dose required to reduce tumour mass by 90% compared to controls (ADJ/PC6 plasmacytoma): ED90 was achieved
ED90, dose required to reduce tumour mass by 90% compared to controls [6, 9]: 60 mg/kg
ED90, dose required to reduce tumour mass by 90% compared to controls ([6]; i.p. single dose day 20, tumours weighed day 30, listed as melphalan-elaidic acid amide): ED90 was achieved

implants lost through aggressive behaviour of the animals ([2]; 2 weeks, n=10): 4 out of 10
Compound: COc1ccc2cc([C@H](C)C(=O)O)ccc2c1 [naproxen, S(+)-2-(6-methoxy-2-naphthyl)propionic acid, reference compound]
glycosaminoglycan content of implanted cartilage, less than liposome-treated control group [2]: 16%
hydroxyproline content of implanted cartilage, less than liposome-treated control group [2]: 12%
reduction of granuloma tissue dry weight versus liposome-treated control ([2]; 2 weeks): no effect
reduction of fluid mass of the granulomas versus liposome-treated control ([2]; 2 weeks): 12%

Compound: C[C@]12C=CC(=O)C=C1CC[C@@H]1[C@@H]2[C@@H](O)C[C@@]2(C)[C@H]1CC[C@]2(O)C(=O)CO [prednisolone, 11β, 17α, 21-trihydroxypregna-1,4-diene-3,20-dione, reference compound]
activity (chemoluminescence) of zymosan stimulated peritoneal cells ([7]; i.p. 4 ml at 10 mg/ml): slight reduction of the chemoluminescence at 6 hours
number of macrophages in peritoneal lavage ([7]; i.p. 4 ml at 10 mg/ml, 6-72 hours, FIG. 8, FIG. 9): much less pronounced, and only seen at 6 and 12 hours
number of inflammatory cells in the bronchoalveolar fluid ([8]; instillation 3 mg/kg, 12 and 4 hours prior to LPS aerosol): Neither prednisolone nor the derivative did influence

Compound: CCCCCCCC/C=C/CCCCCCCC(=O)OCC(=O)[C@@]1(O)CC[C@H]2[C@@H]3CCC4=CC(=O)C=C[C@]4(C)[C@H]3[C@@H](O)C[C@@]21C [prednisolone-elaidate, 11β, 17α, 21-trihydroxypregna-1,4-diene-3,20-dione-21-elaidate]
chemiluminescence of stimulated peritoneal cells, comparison of 7 fatty acid esters of prednisolone ([7]; i.p. 10 mg/ml, 48 hours post treatment, FIG. 6): the best
activity (chemoluminescence) of zymosan stimulated peritoneal cells ([7]; i.p. 4 ml at 10 mg/ml): reduced compared to control for up to 48 hours post treatment
airway responsiveness to 5-hydroxytryptamine (PC50RL) ([8]; rat, in vivo): affected to a surprisingly high extent
number of inflammatory cells in the bronchoalveolar fluid ([8]; rat, in vivo): Neither prednisolone nor the derivative did influence

Compound: Elaidic acid daunorubicin amide [Daunorubicine elaidic amide]
fluorescence due to uptake in resistant and non-resistant cells [1]: more or less equal in the two cell types

— patent US20030153544A1, “Fatty acid derivatives” (priority 1997, published 2003)
